Reference: patent US20230295157A1, “3-(1H-IMIDAZOL-2-YL)-2,3,8,8A-TETRAHYDROINDOLIZIN-5(1H)-ONE DERIVATIVES USEFUL AS FACTOR XIA INHIBITORS” (JANSSEN PHARMACEUTICA NV, priority 2020, published 2023)
Like-named read-outs stand apart in the source and are kept apart here.

Tests used:
human plasma kallikrein = human plasma kallikrein (Homo sapiens (Human), UniProt P03952); assay: Kallikrein inhibition assay (FLINT) utilizing a quenched AMC peptide substrate; type: biochemical; conditions: 30 min preincubation, kinetic reads over 30 min, Z-Gly-Pro-Arg-AMC substrate 50 μM; read-out: Kallikrein Kin Inh IC50
Chain of human plasma kallikrein (P03952 391-638): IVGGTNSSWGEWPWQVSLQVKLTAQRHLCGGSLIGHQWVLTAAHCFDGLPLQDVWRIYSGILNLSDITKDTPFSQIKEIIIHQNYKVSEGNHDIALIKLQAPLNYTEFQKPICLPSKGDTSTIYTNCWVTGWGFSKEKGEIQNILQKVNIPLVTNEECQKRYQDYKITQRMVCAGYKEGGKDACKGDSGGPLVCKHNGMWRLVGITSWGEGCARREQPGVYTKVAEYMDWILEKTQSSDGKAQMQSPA
Chain of human plasma kallikrein (P03952 20-390 partner): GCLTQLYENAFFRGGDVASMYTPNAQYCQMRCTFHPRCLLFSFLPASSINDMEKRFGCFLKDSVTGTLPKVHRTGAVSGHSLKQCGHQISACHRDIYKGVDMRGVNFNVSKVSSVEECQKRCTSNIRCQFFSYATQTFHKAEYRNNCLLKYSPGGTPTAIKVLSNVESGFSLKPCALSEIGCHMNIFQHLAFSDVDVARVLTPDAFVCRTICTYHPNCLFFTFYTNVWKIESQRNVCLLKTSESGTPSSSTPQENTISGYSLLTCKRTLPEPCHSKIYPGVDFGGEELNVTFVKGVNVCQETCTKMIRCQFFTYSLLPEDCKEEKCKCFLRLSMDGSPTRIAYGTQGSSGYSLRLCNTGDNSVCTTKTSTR
How it was run: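 Fluorogenic Z-Gly-Pro-Arg-AMC cleavage (50 μM substrate, 2 nM kallikrein, Tris pH 7.5, CaCl2, BSA, CHAPS, 2% DMSO) read kinetically at 340/440 nm for 30 min after 30-min compound pre-incubation. Compounds in 11-point 3-fold series from 1 μM; percent inhibition fitted to four-parameter equation for IC50.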

Factor XIa = Factor XIa (Homo sapiens (Human), UniProt P03951); assay: Factor XIa inhibition assay (FLINT) utilizing a fluorophore-quencher pair peptide substrate; type: biochemical; conditions: 30 min preincubation, kinetic reads over 30 min, read-out: FXIa Kin Inh IC50
Chain of Factor XIa (P03951 388-625): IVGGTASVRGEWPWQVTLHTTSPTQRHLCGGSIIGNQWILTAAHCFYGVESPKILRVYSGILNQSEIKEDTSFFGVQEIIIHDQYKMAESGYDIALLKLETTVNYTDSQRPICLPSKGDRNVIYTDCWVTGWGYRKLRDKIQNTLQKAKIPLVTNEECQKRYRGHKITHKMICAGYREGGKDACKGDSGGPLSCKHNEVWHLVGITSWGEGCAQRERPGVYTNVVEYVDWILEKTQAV
Chain of Factor XIa (P03951 19-387 partner): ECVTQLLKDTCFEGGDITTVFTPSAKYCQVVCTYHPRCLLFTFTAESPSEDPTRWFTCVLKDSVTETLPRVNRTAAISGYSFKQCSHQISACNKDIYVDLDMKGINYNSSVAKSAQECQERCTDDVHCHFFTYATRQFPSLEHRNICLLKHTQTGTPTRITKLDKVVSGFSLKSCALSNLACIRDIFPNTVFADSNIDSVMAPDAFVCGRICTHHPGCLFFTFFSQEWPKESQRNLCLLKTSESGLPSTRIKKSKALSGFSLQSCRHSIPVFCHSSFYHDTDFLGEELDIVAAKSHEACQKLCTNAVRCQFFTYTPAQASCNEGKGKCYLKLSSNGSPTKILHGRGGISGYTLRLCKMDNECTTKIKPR
How it was run: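 FXIa ([…]) preincubated 30 min with compound (11-point 3-fold dilution, top 100 nM, 2% DMSO), then 15 μM quenched FXI Arg146-based peptide added; Tris pH 7.5, CaCl2, BSA, CHAPS. Fluorescence 485/520 nm read kinetically every 5 min over 30 min at RT; IC50 by 4-parameter fit.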

[1] = 5Fam-KLTRAETV-K5Tamra substrate 15 μM
[2] = 5Fam-[…]-K5Tamra substrate 15 μM

IC50 (human plasma kallikrein) | IC50 (Factor XIa; [1]) | IC50 (Factor XIa; [2]) | Structure (SMILES)
17.7 nM | 3.7 nM | – | O=C1C=C(c2c(-n3cnnn3)ccc(Cl)c2F)C[C@H]2CC[C@@H](c3ncc(-c4ccc5cc[nH]c5c4)[nH]3)N12 [Example 8]
6.6 nM | 0.8 nM | – | CC(C)(O)COc1nccc(-c2cnc([C@@H]3CC[C@@H]4CC(c5c(-n6cnnn6)ccc(Cl)c5F)=CC(=O)N43)[nH]2)c1F [Example 166, (3S,8aR)-7-[3-chloro-2-fluoro-6-(tetrazol-1-yl)phenyl]-3-[5-[3-fluoro-2-(2-hydroxy-2-methyl-propoxy)-4-pyridyl]-1H-imidazol-2-yl]-2,3,8,8a-tetrahydro-1H-indolizin-5-one]
462 nM | > 100 nM | – | CNc1ncccc1-c1cnc([C@@H]2CCC3CC(c4c(-n5cnnn5)ccc(Cl)c4F)=CC(=O)N32)[nH]1 (stereo partly drawn) [Example 260, (3S)-7-[3-Chloro-2-fluoro-6-(tetrazol-1-yl)phenyl]-3-[4-[2-(methylamino)-3-pyridyl]-1H-imidazol-2-yl]-2,3,8,8a-tetrahydro-1H-indolizin-5-one]
3.8 nM | – | 23.5 nM | COC(=O)Nc1ccc(-c2cnc([C@@H]3CC[C@H]4CC(c5c(OC(F)F)ccc(Cl)c5F)=CC(=O)N43)[nH]2)cc1 (relative stereo) [Example 320, Methyl (4-(2-((3S,8aS)-7-(3-Chloro-6-(difluoromethoxy)-2-fluorophenyl)-5-oxo-1,2,3,5,8,8a-hexahydroindolizin-3-yl)-1H-imidazol-5-yl)phenyl)carbamate]
1.6 nM | 0.9 nM | – | O=C1C=C(c2c(-n3cnnn3)ccc(Cl)c2F)C[C@H]2CC[C@@H](c3nc(F)c(-c4ccnc(-n5nccn5)c4)[nH]3)N12 [Example 87, (3S,8aR)-7-[3-chloro-2-fluoro-6-(tetrazol-1-yl)phenyl]-3-[4-fluoro-5-[2-(triazol-2-yl)-4-pyridyl]-1H-imidazol-2-yl]-2,3,8,8a-tetrahydro-1H-indolizin-5-one]
9 nM | – | 1.2 nM | CNc1ccc(-c2cnc([C@@H]3CC[C@@H]4CC(c5c(-n6cnnn6)ccc(Cl)c5F)=CC(=O)N43)[nH]2)c(F)n1 (relative stereo) [Example 282, (3S,8aR)-7-(3-Chloro-2-fluoro-6-(1H-tetrazol-1-yl)phenyl)-3-(5-(2-fluoro-6-(methylamino)pyridin-3-yl)-1H-imidazol-2-yl)-2,3,8,8a-tetrahydroindolizin-5(1H)-one]
1.9 nM | 1.5 nM | – | O=C1C=C(c2c(-n3cnnn3)ccc(Cl)c2F)C[C@H]2CC[C@@H](c3nc(-c4ccnc(-c5ccn[nH]5)c4F)c[nH]3)N12 (single isomer, unassigned) [Example 115, (3S,8a*R)-7-(3-chloro-2-fluoro-6-(1H-tetrazol-1-yl)phenyl)-3-(4-(3-fluoro-2-(1H-pyrazol-5-yl)pyridin-4-yl)-1H-imidazol-2-yl)-2,3,8,8a-tetrahydroindolizin-5(1H)-one]
2.3 nM | – | 6.5 nM | Nc1ccn(-c2cc(-c3cnc([C@H]4CC[C@@H]5CC(c6c(-n7cnnn7)ccc(Cl)c6F)=CC(=O)N54)[nH]3)ccn2)n1 (single isomer, unassigned) [Example 72, (3R*,8aR)-3-(5-(2-(3-amino-1H-pyrazol-1-yl)pyridin-4-yl)-1H-imidazol-2-yl)-7-(3-chloro-2-fluoro-6-(1H-tetrazol-1-yl)phenyl)-2,3,8,8a-tetrahydroindolizin-5(1H)-one]
27 nM | 11 nM | – | O=C1CCCN1c1nccc(-c2cnc([C@@H]3CC[C@@H]4CC(c5c(-n6cnnn6)ccc(Cl)c5F)=CC(=O)N43)[nH]2)c1F [Example 106, (3S,8aR)-7-(3-chloro-2-fluoro-6-(1H-tetrazol-1-yl)phenyl)-3-(5-(3-fluoro-2-(2-oxopyrrolidin-1-yl)pyridin-4-yl)-1H-imidazol-2-yl)-2,3,8,8a-tetrahydroindolizin-5(1H)-one]
6.5 nM | 3.8 nM | – | O=C1C=C(c2c(-n3cnnn3)ccc(Cl)c2F)C[C@H]2CC[C@@H](c3ncc(-c4ccc5[nH]ccc5c4)[nH]3)N12 [Example 14, (3S,8aR)-3-(5-(1H-indol-5-yl)-1H-imidazol-2-yl)-7-(3-chloro-2-fluoro-6-(1H-tetrazol-1-yl)phenyl)-2,3,8,8a-tetrahydroindolizin-5(1H)-one]
3.4 nM | 0.6 nM | – | NC(=O)c1ccc(-c2cnc([C@@H]3CC[C@@H]4CC(c5c(-n6cnnn6)ccc(Cl)c5F)=CC(=O)N43)[nH]2)c(F)c1 [Example 196, 4-(2-((3S,8aR)-7-(3-chloro-2-fluoro-6-(1H-tetrazol-1-yl)phenyl)-5-oxo-1,2,3,5,8,8a-hexahydroindolizin-3-yl)-1H-imidazol-4-yl)-3-fluorobenzamide]
6.8 nM | – | 0.4 nM | [2H]c1nc([C@@H]2CC[C@]3([2H])CC(c4c(-n5cnnn5)ccc(Cl)c4F)=CC(=O)N23)[nH]c1-c1c(F)nc(N)c([2H])c1[2H] (single isomer, unassigned) [Example 132, (3S *,8aR*)-3-(5-(6-amino-2-fluoropyridin-3-yl-4,5-d2)-1H-imidazol-2-yl-4-d)-7-(3-chloro-2-fluoro-6-(1H-tetrazol-1-yl)phenyl)-2,3,8,8a-tetrahydroindolizin-5(1H)-one-8a-d]
465 nM | 82.1 nM | – | CC(=O)Nc1cc(-c2cnc([C@@H]3CCC4CC(c5c(-n6cnnn6)ccc(Cl)c5F)=CC(=O)N43)[nH]2)c(Cl)cn1 (stereo partly drawn) [Example 18, N-[5-Chloro-4 [2-[(3S)-7-[3-Chloro-2-fluoro-6-(tetrazol-1-yl)phenyl]-5-oxo-2,3,8,8a-tetrahydro-1H-indolizin-3-yl]-1H-imidazol-5-yl]-2-pyridyl]acetamide]
1.9 nM | 0.6 nM | – | O=C1C=C(c2cc(Cl)ccc2-n2cc(C(F)(F)F)nn2)C[C@H]2CC[C@@H](c3ncc(-c4ccc5[nH]c(=O)ccc5c4)[nH]3)N12 [Example 101, 6-(2-((3S,8aR)-7-(5-chloro-2-(4-(trifluoromethyl)-1H-1,2,3-triazol-1-yl)phenyl)-5-oxo-1,2,3,5,8,8a-hexahydroindolizin-3-yl)-1H-imidazol-5-yl)quinolin-2(1H)-one]
106 nM | 20.2 nM | – | Cc1ccc(-n2cnnn2)c(C2=CC(=O)N3[C@H](CC[C@H]3c3ncc(-c4ccnc(CO)c4F)[nH]3)C2)c1F [Example 57, (3S,8aR)-3-(5-(3-fluoro-2-(hydroxymethyl)pyridin-4-yl)-1H-imidazol-2-yl)-7-(2-fluoro-3-methyl-6-(1H-tetrazol-1-yl)phenyl)-2,3,8,8a-tetrahydroindolizin-5(1H)-one]
16.6 nM | 2.6 nM | – | NC(=O)c1ccc(-c2cnc([C@@H]3CC[C@@H]4CC(c5c(-n6cnnn6)ccc(Cl)c5F)=CC(=O)N43)[nH]2)cn1 (single isomer, unassigned) [Example 225]
0.8 nM | 0.3 nM | – | CNc1n[nH]c2cc(-c3cnc([C@@H]4CCC5CC(c6c(-n7cnnn7)ccc(Cl)c6F)=CC(=O)N54)[nH]3)ccc12 (stereo partly drawn) [Example 258, (3S)-7-[3-Chloro-2-fluoro-6-(tetrazol-1-yl)phenyl]-3-[5-[3-(methylamino)-1H-indazol-6-yl]-1H-imidazol-2-yl]-2,3,8,8a-tetrahydro-1H-indolizin-5-one]
286 nM | 68.1 nM | – | CCOC(=O)Nc1ccncc1-c1c[nH]c([C@@H]2CC[C@H]3CC(c4c(-n5cnnn5)ccc(Cl)c4F)=CC(=O)N32)n1 [Example 268, Ethyl N-[3-[2-[(3S,8aS)-7-[3-chloro-2-fluoro-6-(tetrazol-1-yl)phenyl]-5-oxo-2,3,8,8a-tetrahydro-1H-indolizin-3-yl]-1H-imidazol-4-yl]-4-pyridyl]carbamate]
0.4 nM | – | 0.2 nM | O=C(Nc1cnccc1-c1c[nH]c([C@@H]2CC[C@@H]3CC(c4c(-n5cnnn5)ccc(Cl)c4F)=CC(=O)N32)n1)C1CC1 (relative stereo) [Example 249, N-(4-(2-((3S,8a*R)-7-(3-Chloro-2-fluoro-6-(1H-tetrazol-1-yl)phenyl)-5-oxo-1,2,3,5,8,8a-hexahydroindolizin-3-yl)-1H-imidazol-4-yl)pyridin-3-yl)cyclopropanecarboxamide]
14.9 nM | 3.3 nM | – | O=C(Nc1cnc(C(F)(F)F)cc1-c1cnc([C@@H]2CC[C@@H]3CC(c4c(-n5cnnn5)ccc(Cl)c4F)=CC(=O)N32)[nH]1)C1CC1 [Example 241, N-[4-[2-[(3S,8aR)-7-[3-Chloro-2-fluoro-6-(tetrazol-1-yl)phenyl]-5-oxo-2,3,8,8a-tetrahydro-1H-indolizin-3-yl]-1H-imidazol-5-yl]-6-(trifluoromethyl)-3-pyridyl]cyclopropanecarboxamide]
71.5 nM | 54.1 nM | – | O=C1OCCN1c1ccc(-c2cnc([C@@H]3CCC4CC(c5c(-n6cnnn6)ccc(Cl)c5F)=CC(=O)N43)[nH]2)cc1 (stereo partly drawn) [Example 318, 3-(4(2-((3S)-7-(3-Chloro-2-fluoro-6-(1H-tetrazol-1-yl)phenyl)-5-oxo-1,2,3,5,8,8a-hexahydroindolizin-3-yl)-1H-imidazol-5-yl)phenyl)oxazolidin-2-one]
1.1 nM | 1.5 nM | – | O=C1C=C(c2c(-n3cnnn3)ccc(Cl)c2F)C[C@H]2CC[C@@H](c3ncc(-c4ccc5[nH]c(=O)[nH]c5c4)[nH]3)N12 (single isomer, unassigned) [Example 286]
